Five molecules from US9856242B2, “5-fluoro-N-(pyridin-2-yl)pyridin-2-amine derivatives containing a sulfone group” (Bayer Pharma Aktiengesellschaft, priority 2014, dated 2018) can be followed below.

For test [1], the target named is T1, CDK2/CycE (Homo sapiens, UniProt P24941).
T1 construct: GST; purchased ProQinase GmbH (Freiburg, Germany); host or cells: insect cells (Sf9)
Briefly: CDK2/CycE kinase assay (Method 2a, TR-FRET, 10 μM ATP). The class given is biochemical. An excerpt:
2a. CDK2/CycE Kinase Assay:
CDK2/CycE-inhibitory activity of compounds of the present invention was quantified employing the CDK2/CycE TR-FRET assay as described in the following paragraphs:
Recombinant fusion proteins of GST and human CDK2 and of GST and human CycE, expressed in insect cells (Sf9) and purified by Glutathion-Sepharose affinity chromatography, were purchased from ProQinase GmbH (Freiburg, Germany). As substrate for the kinase reaction biotinylated peptide biotin-Ttds-YISPLKSPYKISEG (C-terminus in amid form) was used which can be purchased e.g. form the company JERINI Peptide Technologies (Berlin, Germany).
(§1) For the assay 50 n1 of a 100 fold concentrated solution of the test compound in DMSO was pipetted into a black low volume 384 well microtiter plate (Greiner Bio-One, Frickenhausen, Germany), 2 μl of a solution of CDK2/CycE in aqueous assay buffer [50 mM Tris/HCl pH 8.0, 10 mM MgCl2, 1.0 mM dithiothreitol, 0.1 mM sodium ortho-vanadate, 0.01% (v/v) Nonidet-P40 (Sigma)] were added and the mixture was incubated for 15 min at 22° C. to allow pre-binding of the test compounds to the enzyme before the start of the kinase reaction. Then the kinase reaction was started by the addition of 3 μl of a solution of adenosine-tri-phosphate (ATP, 16.7 μM=>final conc. in the 5 μl assay volume is 10 μM) and substrate (1.25 μM=>final conc. in the 5 μl assay volume is 0.75 μM) in assay buffer and the resulting mixture was incubated for a reaction time of 25 min at 22° C. The concentration of CDK2/CycE was adjusted depending of the activity of the enzyme lot and was chosen appropriate to have the assay in the linear range, typical concentrations were in the range of 130 ng/mL. The reaction was stopped by the addition of 5 μl of a solution of TR-FRET detection reagents (0.2 μM streptavidine-XL665 [Cisbio Bioassays, Codolet, France] and 1 nM anti-RB(pSer807/pSer811)-antibody from BD Pharmingen [#558389] and 1.2 nM LANCE EU-W1024 labeled anti-mouse IgG antibody [Perkin-Elmer, product no. AD0077]) in an aqueous EDTA-solution (100 mM EDTA, 0.2% (w/v) bovine serum albumin in 100 mM HEPES/NaOH pH 7.0).
(§2) The resulting mixture was incubated 1 h at 22° C. to allow the formation of complex between the phosphorylated biotinylated peptide and the detection reagents. Subsequently the amount of phosphorylated substrate was evaluated by measurement of the resonance energy transfer from the Eu-chelate to the streptavidine-XL. Therefore, the fluorescence emissions at 620 nm and 665 nm after excitation at 350 nm was measured in a TR-FRET reader, e.g. a Rubystar (BMG Labtechnologies, Offenburg, Germany) or a Viewlux (Perkin-Elmer). The ratio of the emissions at 665 nm and at […] was taken as the measure for the amount of phosphorylated substrate. The data were normalised (enzyme reaction without inhibitor=0% inhibition, all other assay components but no enzyme=100% inhibition).
On the technique in general: Time-resolved FRET reads energy transfer from a long-lived donor to a nearby acceptor.

The target of test [2] is T2, CDK9/CycT1 (Homo sapiens, UniProt P50750).
T2 construct: Recombinant full-length His-tagged human CDK9 and CycT1; His; purchased Invitrogen PV4131; host or cells: insect cells
Briefly: CDK9/CycT1 kinase assay (Method 1a, TR-FRET, 10 μM ATP). The class given is biochemical. To be noted: for IC50: Method 1a, 10 μM ATP; for Selectivity CDK9/CDK2: according to Methods 1a and 2a (ratio of CDK2 IC50 to CDK9 IC50).
From the text: 1a. CDK9/CycT1 Kinase Assay:
CDK9/CycT1-inhibitory activity of compounds of the present invention was quantified employing the CDK9/CycT1 TR-FRET assay as described in the following paragraphs:
as §1, with “Recombinant full-length His-tagged human CDK9 and CycT1, expressed in insect cells and purified by Ni-NTA affinity chromatography, were purchased from Invitrogen (Cat. No PV4131). As substrate for the kinase reaction biotinylated peptide biotin-Ttds-YISPLKSPYKISEG (C-terminus in amid form) was used which can be purchased e.g. form the company JERINI Peptide Technologies (Berlin, Germany). For” for “For”, “CDK9/CycT1” for “CDK2/CycE”, “(1.67” for “(1.25”, “1” for “0.75”, “1 μg/mL.” for “130 ng/mL.”
as §2, with “HTRF” for “TR-FRET”

Each structure is given as a SMILES string.

T2 sequence (P50750 whole entry): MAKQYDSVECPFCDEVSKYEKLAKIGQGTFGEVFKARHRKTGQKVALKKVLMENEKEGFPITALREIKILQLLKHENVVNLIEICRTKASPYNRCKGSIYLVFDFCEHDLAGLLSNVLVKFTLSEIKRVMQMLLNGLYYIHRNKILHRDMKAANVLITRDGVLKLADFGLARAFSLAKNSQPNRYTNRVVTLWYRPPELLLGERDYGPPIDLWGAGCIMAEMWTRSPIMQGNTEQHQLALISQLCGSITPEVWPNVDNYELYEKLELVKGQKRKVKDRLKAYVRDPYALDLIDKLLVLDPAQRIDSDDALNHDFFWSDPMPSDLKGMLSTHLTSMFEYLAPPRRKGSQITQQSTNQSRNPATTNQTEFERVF
T2 sequence (O60563 whole entry partner): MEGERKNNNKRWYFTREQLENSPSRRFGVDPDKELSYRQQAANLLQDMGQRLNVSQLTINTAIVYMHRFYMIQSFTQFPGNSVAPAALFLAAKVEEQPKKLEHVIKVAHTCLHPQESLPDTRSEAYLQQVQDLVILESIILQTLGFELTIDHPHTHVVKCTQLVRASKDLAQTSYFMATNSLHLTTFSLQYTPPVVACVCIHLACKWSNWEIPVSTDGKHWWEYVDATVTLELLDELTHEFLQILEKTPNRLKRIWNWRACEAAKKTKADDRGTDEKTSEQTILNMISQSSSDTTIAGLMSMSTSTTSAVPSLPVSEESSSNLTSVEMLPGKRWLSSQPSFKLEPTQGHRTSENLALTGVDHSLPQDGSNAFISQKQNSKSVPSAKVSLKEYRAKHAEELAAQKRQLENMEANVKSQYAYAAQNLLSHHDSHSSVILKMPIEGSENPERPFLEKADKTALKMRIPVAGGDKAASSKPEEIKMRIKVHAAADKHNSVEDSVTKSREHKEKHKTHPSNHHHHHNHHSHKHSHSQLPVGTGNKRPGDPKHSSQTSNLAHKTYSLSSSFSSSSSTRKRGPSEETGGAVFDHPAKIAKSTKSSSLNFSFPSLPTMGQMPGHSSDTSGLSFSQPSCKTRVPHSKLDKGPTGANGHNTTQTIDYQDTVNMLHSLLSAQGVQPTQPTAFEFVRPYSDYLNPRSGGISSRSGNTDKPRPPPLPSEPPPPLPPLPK

Broadly, the IC50 is the midpoint of a concentration-inhibition curve. A lower IC50 goes with greater potency in that assay. `CS(=O)(=O)Cc1cc(Nc2cc(-c3ccc(F)c4ccoc34)c(F)cn2)nc(C(F)(F)F)c1` [Example 4, 5-Fluoro-4-(4-fluoro-1-benzofuran-7-yl)-N-{4-[(methylsulfonyl)methyl]-6-(trifluoromethyl)pyridin-2-yl}pyridin-2-amine] displayed an IC50 in test [1] of 0.033 µM. This counts as double-digit nanomolar.
As to `CS(=O)(=O)Cc1ccnc(Nc2cc(-c3cccc4ccoc34)c(F)cn2)c1` [Example 5, 4-(1-Benzofuran-7-yl)-5-fluoro-N-{4-[(methylsulfonyl)methyl]pyridin-2-yl}pyridin-2-amine], in test [2], the IC50 worked out at 0.004 µM and the “Selectivity CDK9/CDK2” value is listed as 17. In test [1], this molecule gave an IC50 of 0.069 µM.
In the same order, the values of `CS(=O)(=O)Cc1ccnc(Nc2cc(-c3ccc(F)c4ccoc34)c(F)cn2)c1` [Example 1, 5-Fluoro-4-(4-fluoro-1-benzofuran-7-yl)-N-{4-[(methylsulfonyl)methyl]pyridin-2-yl}pyridin-2-amine] are 0.003 µM, 29 and 0.087 µM.
As to `Cc1cc(CS(C)(=O)=O)cc(Nc2cc(-c3ccc(F)c4ccoc34)c(F)cn2)n1` [Example 3, 5-Fluoro-4-(4-fluoro-1-benzofuran-7-yl)-N-{6-methyl-4-[(methylsulfonyl)methyl]pyridin-2-yl}pyridin-2-amine], the IC50 in test [1] was 0.046 µM.
Regarding `CS(=O)(=O)Cc1cc(F)nc(Nc2cc(-c3ccc(F)c4ccoc34)c(F)cn2)c1` [Example 2, 5-Fluoro-4-(4-fluoro-1-benzofuran-7-yl)-N-{6-fluoro-4-[(methylsulfonyl)methyl]pyridin-2-yl}pyridin-2-amine], in test [2], inhibition was half-maximal at 0.004 µM (IC50) and the “Selectivity CDK9/CDK2” value is on record as 18. In test [1], this molecule gave an IC50 of 0.071 µM.
